Source: US11497740B2, “Use of Jumonji C demethylase inhibitors for the treatment and prevention of chemotherapy resistance and radioresistance in cancer” (THE BOARD OF REGENTS OF THE UNIVERSITY OF TEXAS SYSTEM, priority 2016, dated 2022)

Tests used:
Assay type in all cases: cell-based, human
H1299 T18 = assay: MTS cell viability assay, H1299 T18 resistant variant vs H1299 Parental; settings: for H1299 T18 SR (Selectivity Ratio): SR = [IC50 of Parental]/[IC50 of Resistant], H1299 T18 vs H1299 Parental; for loss of cell viability: H1299 T18 and H1299 Parental; for cross-resistance of paclitaxel+carboplatin resistant variants: resistant variants (FIGS. 2D, 9)
Method: (§1) NSCLC lines were treated with paclitaxel+carboplatin combination, given in a ˜2:3 wt/wt ratio, to mirror the clinical dosage values of ˜225 mg/m2 and ˜330 mg/m2, paclitaxel and carboplatin respectively. Note that considering the molecular weights of the two drugs, this translates to approximately a 1 to 3.4 molar ratio. Drugs were given in cycles, following a drug on/drug off treatment scheme. Each cycle consisted of 4-5 days of drug treatment and drug-free culturing for about 1-2 weeks or more to allow the surviving cells to repopulate the plate. […] Untreated parental cells were simultaneously maintained at all times for comparison. Cell viability was assessed in 96-well plates using standard MTS assays (Promega). Treatment duration in MTS assays was 4 days. Drugs were tested in two- or four-fold serial dilutions, totaling 8 different drug concentrations, with 8 replicates per concentration. Response was validated in multiple replicate plates (n≥3).
(§2) Cell viability was assessed by standard MTS assays using Promega's CellTiter reagents. Eight drug concentrations given as two- or four-fold dilutions were tested for each chemotherapeutic agent. In addition, each experiment contained eight replicates per concentration and the entire assay was performed in multiple replicates (n≥3).

H1355 T16 = assay: MTS cell viability assay, H1355 T16 resistant variant vs H1355 Parental; settings: for H1355 T16 SR (Selectivity Ratio): SR = [IC50 of Parental]/[IC50 of Resistant], H1355 T16 vs H1355 Parental; for loss of cell viability: H1355 T16 and H1355 Parental; for cross-resistance of paclitaxel+carboplatin resistant variant: H1355 T16
Method: as §1, §2

HCC4017 T5 = assay: MTS cell viability assay, HCC4017 T5 resistant variant vs parental; settings: HCC4017 T5 and parental
Method: as §1, §2

H1693 T8 = assay: MTS cell viability assay, H1693 T8 resistant variant vs parental; settings: H1693 T8 and parental
Method: as §1, §2

| SMILES | H1299 T18 SR (Selectivity Ratio) (H1299 T18) | H1355 T16 SR (Selectivity Ratio) (H1355 T16) | also measured |
| --- | --- | --- | --- |
| c1cc(SSc2ccns2)sn1 [NU 9056] | 2.0 | 1.0 | – |
| Nc1nccc2c1ncn2C1C=C(CO)C(O)C1O (stereo not drawn) [DZNep] | 0.5 | 1.7 | – |
| O=C(/C=C/c1cccnc1)NCCCCC1CCN(C(=O)c2ccccc2)CC1 [FK866] | 0.1 | 2.1 | – |
| O=C(CCCCCN1C(=O)c2cccc3cccc(c23)C1=O)NO [Scriptaid] | 1.5 | 1.4 | – |
| Clc1ccc(N/N=C(/c2ccccc2)c2ccccn2)nc1 (single isomer, unassigned) [Z isomer (Inactive)] | 1.1 | 1.0 | loss of cell viability (H1299 T18): no viability loss; loss of cell viability (H1355 T16): no loss of cell viability; loss of cell viability (HCC4017 T5): No loss in cell viability; loss of cell viability (H1693 T8): No loss in cell viability |
| CC(/C=C/C(=O)NO)=C\[C@@H](C)C(=O)c1ccc(N(C)C)cc1 [Trichostatin A] | 1.8 | 2.6 | – |
| CCc1c2c(nc3ccc(OC(=O)N4CCC(N5CCCCC5)CC4)cc13)-c1cc3c(c(=O)n1C2)COC(=O)[C@]3(O)CC [Irinotecan] | 1.1 | 2.7 | – |
| Nc1ncn([C@@H]2O[C@H](CO)[C@@H](O)[C@H]2O)c(=O)n1 [5-azacytidine] | 0.2 | 2.6 | – |
| C/C=C1\NC(=O)[C@H]2CSSCC/C=C/[C@H](CC(=O)N[C@H](C(C)C)C(=O)N2)OC(=O)[C@H](C(C)C)NC1=O [Depsipeptide] | 0.05 | 0.03 | cross-resistance of paclitaxel+carboplatin resistant variants (H1299 T18): cross-resistant; cross-resistance of paclitaxel+carboplatin resistant variant (H1355 T16): cross-resistant |
| CC(=O)O[C@@]12CO[C@@H]1C[C@H](O)[C@@]1(C)C(=O)[C@H](O)C3=C(C)[C@@H](OC(=O)[C@H](O)[C@@H](NC(=O)OC(C)(C)C)c4ccccc4)C[C@@](O)([C@@H](OC(=O)c4ccccc4)[C@H]21)C3(C)C [Docetaxel] | 0.03 | 0.002 | cross-resistance of paclitaxel+carboplatin resistant variants (H1299 T18): cross-resistant; cross-resistance of paclitaxel+carboplatin resistant variant (H1355 T16): cross-resistant |
| NC1(c2ccc(-c3nc4ccn5c(=O)[nH]nc5c4cc3-c3ccccc3)cc2)CCC1 [MK-2206] | 0.7 | 1.8 | – |
| CCCC(CCC)C(=O)O [Valproic acid] | 1.4 | 1.3 | – |
| NC1CC1c1ccccc1 (stereo not drawn) [2-PCPA] | 1.3 | 1.8 | – |
| CN(C)c1ccc(C(=O)NCCCCCCC(=O)NO)cc1 [M344] | 1.1 | 1.8 | – |
| CCC1=C[C@@H]2CN(C1)Cc1c([nH]c3ccccc13)[C@@](C(=O)OC)(c1cc3c(cc1OC)N(C)[C@H]1[C@@](O)(C(=O)OC)[C@H](OC(C)=O)[C@]4(CC)C=CCN5CC[C@]31[C@@H]54)C2 [Vinorelbine] | 0.03 | 0.002 | cross-resistance of paclitaxel+carboplatin resistant variants (H1299 T18): cross-resistant; cross-resistance of paclitaxel+carboplatin resistant variant (H1355 T16): cross-resistant |
| COc1cc2nc(N3CCCN(C)CC3)nc(NC3CCN(Cc4ccccc4)CC3)c2cc1OC [BIX 01294] | 0.9 | 1.9 | – |
| CC/C(=C(\c1ccccc1)c1ccc(OCCN(C)C)cc1)c1ccccc1 [Tamoxifen] | 1.0 | 1.0 | – |
| N.N.O=C([O-])C1(C(=O)[O-])CCC1.[Pt+2] [Carboplatin] | 0.8 | 1.2 | – |
| Oc1nc(-c2ccc(C(F)(F)F)cc2)nc2c1CSCC2 [XAV939] | 2.7 | 1.0 | – |
| COc1ccc(CCc2nc3cc(-c4c(C)noc4C)ccc3n2C[C@H](C)N2CCOCC2)cc1Cl [SGC-CBP30] | 1.3 | 0.9 | – |
| CC[C@H](C)n1cc(C)c2c(C(=O)NCc3c(C)cc(C)[nH]c3=O)cc(-c3ccc(N4CCNCC4)nc3)cc21 [GSK 126] | 1.0 | 0.8 | – |
| Cc1sc2c(c1C)C(c1ccc(Cl)cc1)=N[C@@H](CC(=O)OC(C)(C)C)c1nnc(C)n1-2 [JQ1] | 0.6 | 6.6 | – |
| O=C(/C=C/N1C[C@H]2C[C@@H]1CN2c1ccccn1)c1ccccc1O [PFI 3] | 1.1 | 2.5 | – |
| CC(=O)O[C@H]1C(=O)[C@@]2(C)[C@H]([C@H](OC(=O)c3ccccc3)[C@]3(O)C[C@H](OC(=O)[C@H](O)[C@@H](NC(=O)c4ccccc4)c4ccccc4)C(C)=C1C3(C)C)[C@]1(OC(C)=O)CO[C@@H]1C[C@@H]2O [Paclitaxel] | 0.03 | 0.02 | – |
| COc1cccc2c1C(=O)c1c(O)c3c(c(O)c1C2=O)C[C@@](O)(C(=O)CO)C[C@@H]3O[C@H]1C[C@H](N)[C@H](O)[C@H](C)O1 [Doxorubicin] | 0.04 | 0.25 | cross-resistance of paclitaxel+carboplatin resistant variants (H1299 T18): cross-resistant; cross-resistance of paclitaxel+carboplatin resistant variant (H1355 T16): cross-resistant |
| O=C1C(=Cc2cccnc2)C(=O)c2ccccc21 [PRT 4165] | 1.0 | 1.4 | – |
| CCOC(=O)CCNc1cc(N2CCc3ccccc3CC2)nc(-c2cccnc2)n1 [GSK-J5] | – | – | loss of cell viability (H1299 T18): no effect on cell viability; loss of cell viability (H1355 T16): no loss of cell viability |
